From patent US6022696A, “Methods of identifying agonists or antagonists of angiotensin IV” (Washington State University Research Foundation, priority 1998, dated 2000) come the findings set out here.

A short description of this series: Stability of angiotensin peptides in binding assay buffer / assay conditions. The format is physicochemical. To be noted: 4 h at 37° C., reverse phase HPLC.

Molecules are shown by their SMILES.

`CC[C@H](C)[C@H](NC(=O)[C@H](Cc1ccc(O)cc1)NC(=O)[C@@H](N)C(C)C)C(=O)N[C@@H](Cc1cnc[nH]1)C(=O)N1CCC[C@H]1C(=O)N[C@@H](Cc1ccccc1)C(=O)O` [AIV, Val1 Tyr2 Ile3 His4 Pro5 Phe6]: the “hydrolysis in binding buffer” value is recorded as “less than 10%”.
